According to patent US4532255A, “Amidine compounds and anticomplement agent comprising same” (Torii & Co., Ltd., priority 1980, dated 1985):

Key:
Trypsin = biological target: T1, Trypsin (Bos taurus, UniProt P00760); experiment: Anti-trypsin activity (hydrolysis of TAME); assay type: biochemical; settings: for IC50: molar concentration inhibiting 50% of TAME hydrolysis, read-out: Trypsin ID50; for inhibition at 10 µM: at 1×10^-5 M, read-out: Trypsin percentage inhibition
T1 sequence (P00760 24-246): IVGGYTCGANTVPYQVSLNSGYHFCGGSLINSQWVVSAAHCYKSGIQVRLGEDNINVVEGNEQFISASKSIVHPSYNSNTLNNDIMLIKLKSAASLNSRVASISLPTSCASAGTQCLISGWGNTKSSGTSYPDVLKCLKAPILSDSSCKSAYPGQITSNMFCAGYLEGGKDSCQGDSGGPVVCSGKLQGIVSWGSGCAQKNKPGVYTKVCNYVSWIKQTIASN
Description: (§1) The anti-trypsin, anti-plasmin, anti-kallikrein and anti-thrombin activities were determined according to the method of Muramatsu et al. [M. Muramatsu, T. Onishi, S. Makino, Y. Hayashi and S. Fujii, J. of Biochem., 58, 214 (1965)]. […] The compound No. corresponds to the compound number shown in Examples.

Thrombin = Thrombin (Homo sapiens, UniProt P00734); experiment: biochemical; settings: for inhibition at 10 µM: at 1×10^-5 M, read-out: Thrombin percentage inhibition; for IC50: molar concentration inhibiting 50% of TAME hydrolysis, read-out: Thrombin ID50
Description: (§2) The anti-trypsin, anti-plasmin, anti-kallikrein and anti-thrombin activities were determined according to the method of Muramatsu et al. [M. Muramatsu, T. Onishi, S. Makino, Y. Hayashi and S. Fujii, J. of Biochem., 58, 214 (1965)]. The data summarized in Table 1 are expressed in terms of molar concentration (ID50) of the test compound which inhibits 50% of the activity of each enzyme to hydrolyze TAME (tosylalginine methyl ester). The compound No. corresponds to the compound number shown in Examples.

Kallikrein [1] = experiment: Anti-kallikrein activity (hydrolysis of TAME); assay type: biochemical; settings: at 1×10^-5 M
Plasmin = Plasmin (Homo sapiens, UniProt P00747); experiment: Anti-plasmin activity (hydrolysis of TAME); assay type: biochemical; settings: for inhibition at 10 µM: at 1×10^-5 M, read-out: Plasmin percentage inhibition; for IC50: molar concentration inhibiting 50% of TAME hydrolysis, read-out: Plasmin ID50
Description: as §1

C1s = biological target: T2, C1s (Homo sapiens, UniProt P09871); experiment: biochemical; settings: ATEE hydrolysis; read-out: Anti-C1 activity, C1s ID50
T2 sequence (P09871 438-688 limits assumed): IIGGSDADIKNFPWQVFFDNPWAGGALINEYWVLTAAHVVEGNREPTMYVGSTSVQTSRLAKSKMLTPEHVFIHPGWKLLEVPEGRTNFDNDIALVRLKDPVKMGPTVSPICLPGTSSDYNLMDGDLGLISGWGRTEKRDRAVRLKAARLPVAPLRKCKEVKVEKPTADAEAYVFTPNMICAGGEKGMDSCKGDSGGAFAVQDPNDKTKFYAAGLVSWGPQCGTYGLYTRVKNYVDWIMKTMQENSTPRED
T2 sequence (P09871 16-437 partner limits assumed): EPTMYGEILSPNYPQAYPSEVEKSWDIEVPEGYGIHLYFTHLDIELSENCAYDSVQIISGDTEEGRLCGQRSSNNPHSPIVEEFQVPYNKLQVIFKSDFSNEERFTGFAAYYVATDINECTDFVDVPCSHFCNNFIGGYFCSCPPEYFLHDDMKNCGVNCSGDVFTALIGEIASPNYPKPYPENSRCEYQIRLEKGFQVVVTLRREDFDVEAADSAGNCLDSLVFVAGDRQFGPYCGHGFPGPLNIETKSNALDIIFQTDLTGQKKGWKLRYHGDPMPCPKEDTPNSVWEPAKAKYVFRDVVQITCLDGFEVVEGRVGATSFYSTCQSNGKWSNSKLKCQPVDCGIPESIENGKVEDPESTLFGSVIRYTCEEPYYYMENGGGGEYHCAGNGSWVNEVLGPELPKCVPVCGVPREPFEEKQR
Description: The anti-Cl esterase (Clr, Cls) activity was determined according to the method of Okamura et al. [K. Okamura, M. Muramatsu and S. Fujii, Biochem. Biophys. […] The figures in Table 2 have the following meanings:
Cls: Molar concentration of the test compound which inhibits 50% of the ability of Cls to hydrolyse ATEE (acetyltyrosin ethyl ester).

C1r = biological target: T3, C1r (Homo sapiens, UniProt P00736); experiment: Anti-C1 esterase (C1r) activity (hydrolysis of AAME); assay type: biochemical; settings: for inhibition at 10 µM: at 1×10^-5 M, read-out: Anti-C1 activity, C1r percent inhibition; for IC50: AAME hydrolysis, read-out: Anti-C1 activity, C1r ID50
T3 sequence (P00736 464-705 limits assumed): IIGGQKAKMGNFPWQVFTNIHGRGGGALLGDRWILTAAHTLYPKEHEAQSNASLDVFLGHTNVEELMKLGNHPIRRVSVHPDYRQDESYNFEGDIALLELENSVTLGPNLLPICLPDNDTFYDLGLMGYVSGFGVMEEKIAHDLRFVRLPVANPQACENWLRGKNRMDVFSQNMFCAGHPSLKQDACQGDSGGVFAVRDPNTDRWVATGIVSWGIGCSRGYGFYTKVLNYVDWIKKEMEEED
T3 sequence (P00736 18-463 partner limits assumed): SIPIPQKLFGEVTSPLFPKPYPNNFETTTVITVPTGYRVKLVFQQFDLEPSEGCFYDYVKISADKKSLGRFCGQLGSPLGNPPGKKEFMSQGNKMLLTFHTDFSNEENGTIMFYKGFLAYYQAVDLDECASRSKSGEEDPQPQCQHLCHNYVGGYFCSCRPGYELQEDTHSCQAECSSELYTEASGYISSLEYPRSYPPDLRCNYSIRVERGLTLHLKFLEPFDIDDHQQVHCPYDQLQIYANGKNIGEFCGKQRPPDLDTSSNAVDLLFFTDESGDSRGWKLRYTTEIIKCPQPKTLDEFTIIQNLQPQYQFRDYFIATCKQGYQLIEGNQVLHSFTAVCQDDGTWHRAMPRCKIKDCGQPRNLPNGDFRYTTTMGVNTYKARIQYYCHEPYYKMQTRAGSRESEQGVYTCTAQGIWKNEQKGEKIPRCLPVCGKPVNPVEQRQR
Description: The anti-Cl esterase ([…]) activity was determined according to the method of Okamura et al. [K. Okamura, M. Muramatsu and S. Fujii, Biochem. Biophys.

[2] = tested on: complement mediated hemolysis; experiment: Inhibition of complement mediated hemolysis; assay type: cell-based
Kallikrein [3] = experiment: Anti-kallikrein activity (hydrolysis of TAME); assay type: biochemical; settings: molar concentration inhibiting 50% of TAME hydrolysis; read-out: Kallikrein ID50
Description: as §2

Plasmin, sequence (P00747 581-810 limits assumed, species assumed): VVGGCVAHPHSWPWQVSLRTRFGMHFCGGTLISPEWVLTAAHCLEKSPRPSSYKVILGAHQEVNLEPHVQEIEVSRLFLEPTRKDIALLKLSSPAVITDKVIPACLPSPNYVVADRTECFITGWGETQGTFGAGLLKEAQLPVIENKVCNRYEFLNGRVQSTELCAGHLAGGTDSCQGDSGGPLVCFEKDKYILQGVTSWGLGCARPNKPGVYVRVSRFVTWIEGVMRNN
Plasmin, sequence (P00747 97-580 partner limits assumed, species assumed): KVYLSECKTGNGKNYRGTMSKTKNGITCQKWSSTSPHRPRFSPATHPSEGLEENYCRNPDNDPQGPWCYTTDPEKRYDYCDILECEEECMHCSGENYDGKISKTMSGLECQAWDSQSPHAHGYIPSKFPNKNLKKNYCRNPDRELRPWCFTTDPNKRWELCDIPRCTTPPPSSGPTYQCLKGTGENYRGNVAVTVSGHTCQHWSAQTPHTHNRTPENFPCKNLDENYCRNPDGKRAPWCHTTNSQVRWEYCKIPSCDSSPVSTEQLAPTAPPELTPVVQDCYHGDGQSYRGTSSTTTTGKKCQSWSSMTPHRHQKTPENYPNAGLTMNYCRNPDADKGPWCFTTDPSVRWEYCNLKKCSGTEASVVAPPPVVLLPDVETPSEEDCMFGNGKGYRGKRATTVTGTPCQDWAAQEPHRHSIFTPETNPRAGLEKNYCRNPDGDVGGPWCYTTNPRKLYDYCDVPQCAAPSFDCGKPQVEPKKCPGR

inhibition at 10 µM (Thrombin) [%] | Structure (SMILES) | IC50 (Trypsin) [µM] | Kallikrein percentage inhibition (Kallikrein [1]) [%] | inhibition at 10 µM (Plasmin) [%] | IC50 (Thrombin) [µM] | IC50 (Plasmin) [µM] | IC50 (C1s) [µM] | inhibition at 10 µM (C1r) [%] | Inhibition of complement mediated hemolysis (%) ([2]; 1 × 10^-5) | Inhibition of complement mediated hemolysis (%) ([2]; 1 × 10^-6) | Inhibition of complement mediated hemolysis (%) ([2]; 1 × 10^-7) | IC50 (Kallikrein [3]) [µM] | IC50 (C1r) [µM] | Inhibition of complement mediated hemolysis (%) ([2]; 1 × 10^-4) | inhibition at 10 µM (Trypsin) [%]
20 | N=C(N)c1ccc2cc(OC(=O)c3ccc(OCc4ccccc4)cc3)ccc2c1 [Compound 9] | 0.04 | 19 | 48 | – | – | – | – | – | – | – | – | – | – | –
– | N=C(N)c1ccc2cc(OC(=O)c3ccc(S(N)(=O)=O)cc3)ccc2c1 [Compound 29] | 10 | 42 | – | 2 | 2 | – | – | – | – | – | – | – | – | –
17 | COc1ccc(CCC(=O)Oc2ccc3cc(C(=N)N)ccc3c2)cc1OC [Compound 49] | 2 | 29 | – | – | 4 | – | – | – | – | – | – | – | – | –
– | N=C(N)Nc1ccc(C=CC(=O)Oc2ccc3cc(C(=N)N)ccc3c2)cc1 [Compound 64, 6-amidino-2-naphthyl 4-guanidinocinnamate] | 2 | – | – | > 10 | 10 | 3 | 14 | 39 | 17 | 19 | 4 | – | – | –
– | N=C(N)c1ccc2cc(OC(=O)c3ccc(C=O)cc3)ccc2c1 [Compound 31] | 4 | – | – | 0.3 | 0.4 | 3 | – | 99 | 92 | 76 | > 10 | 2 | 98 | –
– | N=C(N)Nc1ccc(CCC(=O)Oc2ccc3cc(C(=N)N)ccc3c2)cc1 [Compound 52] | – | – | – | > 10 | > 10 | > 10 | – | 15 | 6 | 14 | > 10 | > 10 | 48 | 33
– | N=C(N)c1ccc2cc(OC(=O)C=Cc3ccc(N)cc3)ccc2c1 [Compound 63, 6-amidino-2-naphthyl 4-aminocinnamate] | 2 | – | – | > 10 | 8 | 0.4 | 15 | 37 | 26 | 42 | 4 | – | 73 | –
– | CC(=O)Oc1ccccc1C(=O)Oc1ccc2cc(C(=N)N)ccc2c1 [Compound 12] | – | – | 40 | > 10 | – | 3 | – | 55 | 27 | 3 | > 10 | 3 | 87 | 24
– | N=C(N)c1ccc2cc(OC(=O)c3ccccc3)ccc2c1 [Compound 1, 6-amidino-2-naphthyl benzoate] | 3 | – | – | 5 | 2 | 0.1 | – | 100 | 91 | 27 | 30 | 0.4 | 100 | –
– | N=C(N)c1ccc2cc(OC(=O)c3ccc([N+](=O)[O-])cc3)ccc2c1 [Compound 18, 6-amidino-2-naphthyl 4-nitrobenzoate] | 10 | – | – | 2 | 3 | 4 | – | 97 | 56 | 20 | > 10 | 4 | 92 | –
